Earlier results, collected in patent publication US20070032466A1, “Drug containing chymase inhibitor as the active ingredient” (TEIJIN PHARMA LIMITED, priority 2003, published 2007).

Key:
[1] = test system: hamster model of myocardial infarction; conditions: administrated alone
[2] = test system: canine model of myocardial infarction; conditions: oral administration
mouse allergy model = conditions: oral administration
new onset of diabetes = conditions: large scale clinical tests (CARPPP, HOPE, LIFE studies)

Row | Compound | suppression of new onset of diabetes (new onset of diabetes) | other results
1 | CCOc1ccccc1CC1C(=O)N(C(=O)NC(c2ccc(C)cc2)c2ccc(C)cc2)C1C(=O)c1ccc(C(=O)O)cc1 (stereo not drawn) [4-[1-{[bis(4-methylphenyl)methyl]carbamoyl}-3-(2-ethoxybenzyl)-4-oxoazetizin-2-yloyl]benzoic acid] | – | effect on a hamster model of myocardial infarction [1]: has an effect
2 | O=CNc1cnc(-c2ccccc2)n(CC(=O)NC(Cc2ccccc2)C(=O)C(=O)CCCOc2ccccn2)c1=O (stereo not drawn) [III-I] | – | effectiveness in a canine model of myocardial infarction [2]: effective
3 | COC(=O)c1ccc2oc(C(=O)C(Cc3ccccc3)NC(=O)Cn3c(-c4ccccc4OC)ncc(N)c3=O)nc2c1 (stereo not drawn) [IV-I] | – | activity as a chymase inhibitor in a mouse allergy model (mouse allergy model): exhibit activity as a chymase inhibitor
4 | C[C@H](CS)C(=O)N1CCC[C@H]1C(=O)O [captopril] | suppress new onset of diabetes | –
5 | CCCCc1nc(Cl)c(CO)n1Cc1ccc(-c2ccccc2-c2nn[nH]n2)cc1 [losartan] | suppress new onset of diabetes | –
6 | CCOC(=O)[C@H](CCc1ccccc1)N[C@@H](C)C(=O)N1[C@H](C(=O)O)C[C@@H]2CCC[C@@H]21 [ramipril] | suppress new onset of diabetes | –
